pIC50: −log10 of the molar value. “And” between values parts separate entries of the source, which are not always exact repeats. Identical values can stand only once.
Experiments:
[1] = molecular target: Glycogen synthase kinase-3 alpha (Homo sapiens, UniProt P49840); assay: TR-FRET Assay
Description: (§1) The assay was performed in a white, 384 well, low volume, flat bottom plate (Grenier). […] The kinase activity was quenched with 2 μL of 250 mM EDTA. A 10 μL volume of 40 nM Strepavidin-d2, 2 nM Tb2+-pSer641 antibody in TR-FRET Detection Buffer (Invitrogen) was then added.

[2] = molecular target: Glycogen synthase kinase-3 beta (Homo sapiens, UniProt P49841); assay: TR-FRET Assay
Chain of Glycogen synthase kinase-3 beta (P49841 whole entry): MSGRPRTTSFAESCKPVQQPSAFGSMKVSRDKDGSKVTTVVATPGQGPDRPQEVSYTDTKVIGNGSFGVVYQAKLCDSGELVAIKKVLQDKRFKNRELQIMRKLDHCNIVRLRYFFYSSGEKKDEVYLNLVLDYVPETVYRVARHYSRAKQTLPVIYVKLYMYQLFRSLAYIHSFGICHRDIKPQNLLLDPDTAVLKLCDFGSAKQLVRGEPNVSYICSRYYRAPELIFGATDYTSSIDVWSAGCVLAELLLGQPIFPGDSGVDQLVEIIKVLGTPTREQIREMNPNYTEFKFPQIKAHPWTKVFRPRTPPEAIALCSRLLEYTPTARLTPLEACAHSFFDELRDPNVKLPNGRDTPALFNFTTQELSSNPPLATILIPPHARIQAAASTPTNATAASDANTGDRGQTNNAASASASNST
Description: as §1

Chain of Glycogen synthase kinase-3 alpha (P49840 whole entry): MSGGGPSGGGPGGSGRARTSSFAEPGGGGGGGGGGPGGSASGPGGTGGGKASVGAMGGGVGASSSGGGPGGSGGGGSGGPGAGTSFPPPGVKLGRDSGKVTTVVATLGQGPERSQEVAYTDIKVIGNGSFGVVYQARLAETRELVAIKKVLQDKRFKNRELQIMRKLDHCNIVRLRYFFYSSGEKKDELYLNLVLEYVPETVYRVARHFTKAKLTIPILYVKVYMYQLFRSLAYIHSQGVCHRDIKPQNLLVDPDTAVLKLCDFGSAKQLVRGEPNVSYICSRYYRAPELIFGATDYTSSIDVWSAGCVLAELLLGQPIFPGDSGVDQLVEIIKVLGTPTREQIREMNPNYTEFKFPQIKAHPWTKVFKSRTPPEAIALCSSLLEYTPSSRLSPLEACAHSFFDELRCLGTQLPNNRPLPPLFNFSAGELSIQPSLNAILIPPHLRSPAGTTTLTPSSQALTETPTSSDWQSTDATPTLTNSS

pIC50 [1] | pIC50 [2] | SMILES
5.30 to 6.00 | – | CC[C@]1(c2cccc(-c3ccnc(C)c3)c2)C2=CN=NC2NC2=C1C(=O)NC1(CCOCC1)C2 (stereo not given in full) [US20250313563, Compound 948524]
5.30 to 6.00 | – | CC[C@]1(c2cccc(-c3ccnc(C)c3)c2)C2=C(CC(C)(C)NC2=O)NC2N=NC(C(F)(F)F)=C21 (stereo not given in full) [US20250313563, Compound 948773]
6.00 to 7.00 | – | CC[C@]1(c2cccc(-c3ccnn3C)c2)C2=CN=NC2NC2=C1C(=O)NC1(CCC1)C2 (stereo not given in full) [US20250313563, Compound 948522]
6.00 to 7.00 | – | CC[C@@]1(c2cccc(Br)c2)C2=CN=NC2NC2=C1C(=O)CC(C)(C)C2 (stereo not given in full) [US20250313563, Compound 790734]
5.30 to 6.00 | – | CC[C@@]1(c2cccc(-c3cnn(C)c3)c2)C2=CN=NC2NC2=C1C(=O)CC(C)(C)[C@H]2F (stereo not given in full) [US20250313563, Compound 957510]
6.00 to 7.00 | – | CC[C@]1(c2cccc(-c3c(F)cncc3OC)c2)C2=CN=NC2NC2=C1C(=O)NC(C)(C)C2 (stereo not given in full) [US20250313563, Compound 948145]
6.00 to 7.00 | – | CC[C@]1(c2cccc(-c3ccncc3C)c2)C2=CN=NC2NC2=C1C(=O)NC(C)(COC)C2 (stereo not given in full) [US20250313563, Compound 948127]
5.30 to 6.00 | – | CC[C@]1(c2cccc(-c3ccnn3C(C)C)c2)C2=CN=NC2NC2=C1C(=O)CC(C)(C)C2 (stereo not given in full) [US20250313563, Compound 946092]
6.00 to 7.00 | – | CC[C@@]1(c2cccc(-c3cnn4c3CCCC4)c2)C2=CN=NC2NC2=C1C(=O)CC(C)(C)C2 (stereo not given in full) [US20250313563, Compound 945544]
5.30 to 6.00 | – | CC[C@@]1(c2cccc(Cl)c2)C2=C(CC(C)(C)CC2=O)NC2N=NC(C(F)(F)F)=C21 (stereo not given in full) [US20250313563, Compound 801309]
6.00 to 7.00 | – | CC[C@@]1(c2cccc(-c3ccnn3C)c2)C2=CN=NC2NC2=C1C(=O)CC(C)(C)[C@@H]2F (stereo not given in full) [US20250313563, Compound 957509]
5.30 to 6.00 | – | CC[C@@]1(c2cccc(-c3ccncc3)c2)C2=CN=NC2NC2=C1C(=O)C[C@@H](C)C2 (stereo not given in full) [US20250313563, Compound 874315]
5.30 to 6.00 | – | CC[C@]1(c2cccc(-c3cnn4c3CCCC4)c2)C2=CN=NC2NC2=C1C(=O)NC(C)(C)C2 (stereo not given in full) [US20250313563, Compound 947415]
5.30 to 6.00 | – | CC[C@]1(c2cccc(S(=O)(=O)C3CCCCC3)c2)C2=CN=NC2NC2=C1C(=O)CC(C)(C)C2 (stereo not given in full) [US20250313563, Compound 943547]
5.30 to 6.00 | – | CC[C@]1(c2cccc(-c3cnn(C)c3F)c2)C2=CN=NC2NC2=C1C(=O)NC(C)(C)C2 (stereo not given in full) [US20250313563, Compound 949395]
5.52 and 4.76 | – | CC(=O)N1CC2(C1)C1=C(CC(C)(C)CC1=O)NC1N=NC(CC(C)(C)C)=C12 (stereo not given) [US20250313563, Compound 90991]
5.30 to 6.00 | – | CCc1cccc(N(C)c2cccc([C@]3(CC)C4=CN=NC4NC4=C3C(=O)CC(C)(C)C4)c2)n1 (stereo not given in full) [US20250313563, Compound 945726]
6.00 to 7.00 | – | CC[C@]1(c2cccc(-c3ccnn3C)c2)C2=CN=NC2NC2=C1C(=O)N[C@]1(CCOC1)C2 (stereo not given in full) [US20250313563, Compound 948014]
6.00 to 7.00 | – | CC[C@]1(c2cccc(S(=O)(=O)C3CC3)c2)C2=CN=NC2NC2=C1C(=O)NC(C)(C)C2 (stereo not given in full) [US20250313563, Compound 946004]
6.00 to 7.00 | – | CC[C@]1(c2cccc(-c3ccncc3C)c2)C2=CN=NC2NC2=C1C(=O)NC1(CCCC1)C2 (stereo not given in full) [US20250313563, Compound 948021]
5.30 to 6.00 | – | CC[C@]1(c2cccc(-c3cc(C)ncc3F)c2)C2=CN=NC2NC2=C1C(=O)CC(C)(C)C2 (stereo not given in full) [US20250313563, Compound 927339]
5.30 to 6.00 | – | CC[C@@]1(c2cccc(-c3cn(C)nc3C)c2)C2=C(CC(C)(C)CC2=O)NC2N=NC(C)=C21 (stereo not given in full) [US20250313563, Compound 913034]
5.30 to 6.00 | – | CC[C@@]1(c2cccc(C3CCC3)c2)C2=CN=NC2NC2=C1C(=O)CC(C)(C)C2 (stereo not given in full) [US20250313563, Compound 949514]
6.00 to 7.00 | – | CC[C@]1(c2cccc([C@H]3CCOC(C)(C)C3)c2)C2=CN=NC2NC2=C1C(=O)CC(C)(C)C2 (stereo not given in full) [US20250313563, Compound 912088]
6.00 to 7.00 | – | CC[C@@]1(c2cccc(N3CCCC3)c2)C2=C(CC(C)(C)CC2=O)NC2N=NC(C(F)(F)F)=C21 (stereo not given in full) [US20250313563, Compound 819575]
6.00 to 7.00 | – | CC[C@@]1(c2cccc(C(F)(F)F)c2)C2=CN=NC2NC2=C1C(=O)C[C@@]1(CCNC1=O)C2 (stereo not given in full) [US20250313563, Compound 950331]
6.00 to 7.00 | – | CCn1nccc1-c1cccc([C@@]2(CC)C3=CN=NC3NC3=C2C(=O)CC(C)(C)C3)c1 (stereo not given in full) [US20250313563, Compound 946090]
5.30 to 6.00 | – | CC[C@]1(c2cccc(-c3ccncc3)c2)C2=CN=NC2NC2=C1C(=O)CC(C)(C)[C@H]2F (stereo not given in full) [US20250313563, Compound 959342]

pIC50 [1] | pIC50 [2] | SMILES
5.30 to 6.00 | – | CC[C@]1(c2cccc(-c3cn(C)nc3C)c2)C2=CN=NC2NC2=C1C(=O)N(C)C(C)(C)C2 (stereo not given in full) [US20250313563, Compound 949008]
5.30 to 6.00 | – | CC[C@@]1(c2cccc(-c3ccnc(C)c3)c2)C2=CN=NC2NC2=C1C(=O)N[C@]1(CCOC1)C2 (stereo not given in full) [US20250313563, Compound 948148]
5.30 to 6.00 | – | CC[C@@]1(c2cccc(-c3ccnc(OC)c3)c2)C2=CN=NC2NC2=C1C(=O)CC(C)(C)C2 (stereo not given in full) [US20250313563, Compound 911989]
5.30 to 6.00 | – | CC[C@@]1(c2cccc(-c3ccnc(C)c3)c2)C2=CN=NC2NC2=C1C(=O)CC(C)(C)[C@@H]2F (stereo not given in full) [US20250313563, Compound 946102]
6.00 to 7.00 | – | CC[C@@]1(c2cccc(C(F)F)c2)C2=CN=NC2NC2=C1C(=O)CC(C)(C)C2 (stereo not given in full) [US20250313563, Compound 826716]
6.00 to 7.00 | – | CC[C@@]1(c2cccc(-c3ccncc3F)c2)C2=C(CC(C)(C)NC2=O)NC2N=NC(F)=C21 (stereo not given in full) [US20250313563, Compound 949651]
> 7.00 and 6.00 to 7.00 | – | CC[C@@]1(c2cccc(-c3ccnc(C)c3)c2)C2=C(CC(C)(C)NC2=O)NC2N=NC(C(F)F)=C21 (stereo not given in full) [US20250313563, Compound 950163]
6.00 to 7.00 | – | CC[C@@]1(c2cccc([C@H]3CCOC(C)(C)C3)c2)C2=CN=NC2NC2=C1C(=O)CC(C)(C)C2 (stereo not given in full) [US20250313563, Compound 912090]
5.30 to 6.00 | – | CC[C@]1(c2cccc(-c3ccnn3C)c2)C2=CN=NC2NC2=C1C(=O)N[C@@](C)(COC)C2 (stereo not given in full) [US20250313563, Compound 947907]
5.30 to 6.00 | – | CC[C@@]1(c2cccc(-c3ccnc(C)c3)c2)C2=CN=NC2NC2=C1C(=O)CC(C)(C)C2 (stereo not given in full) [US20250313563, Compound 865170]
6.00 to 7.00 | – | CC[C@@]1(c2cccc(-n3ccnc3)c2)C2=CN=NC2NC2=C1C(=O)CC(C)(C)C2 (stereo not given in full) [US20250313563, Compound 874533]
5.30 to 6.00 | – | CC[C@@]1(c2cccc(Nc3ncccn3)c2)C2=CN=NC2NC2=C1C(=O)CC(C)(C)C2 (stereo not given in full) [US20250313563, Compound 945958]
5.30 to 6.00 | – | Cc1ccc(S(C)(=O)=O)cc1[C@]1(C)C2=C(CC(C)(C)CC2=O)NC2=C1C(CC(C)(C)C)N=N2 (stereo not given in full) [US20250313563, Compound 126397]
5.30 to 6.00 | – | CC[C@@]1(c2cccc(C(F)(F)F)c2)C2=CN=NC2NC2=C1C(=O)N[C@H](c1ccccc1)C2 (stereo not given in full) [US20250313563, Compound 945363]
6.00 to 7.00 | – | CC[C@]1(c2cccc(-c3ccnc(C(F)(F)F)c3)c2)C2=C(CC(C)(C)CC2=O)NC2N=NC(C)=C21 (stereo not given in full) [US20250313563, Compound 913049]
> 7.00 | – | COC(=O)C1CCC2(CC1)C1=C(N=NC1)NC1=C2C(=O)CC(C)(C)C1 (stereo not given) [US20250313563, Compound 918277]
6.00 to 7.00 | – | CC[C@]1(c2cccc(C(F)(F)F)c2)C2=CN=NC2NC2=C1C(=O)C[C@]1(CCN(C)C1=O)C2 (stereo not given in full) [US20250313563, Compound 950330]
5.30 to 6.00 | – | CCc1cccc([C@]2(CC)C3=CN=NC3NC3=C2C(=O)CC(C)(C)C3)c1 (stereo not given in full) [US20250313563, Compound 949391]
– | 6.00 to 7.00 | CC[C@@]1(c2cccc(-c3ccnc(C)c3)c2)C2=CN=NC2NC2=C1C(=O)N[C@]1(CCCOC1)C2 (stereo not given in full) [US20250313563, Compound 948152]
– | 6.00 to 7.00 | CCC1(c2cccc(N3CCC[C@H]3C)c2)C2=CN=NC2NC2=C1C(=O)CC(C)(C)C2 (stereo not given in full) [US20250313563, Compound 885204]
– | 6.00 to 7.00 | CC[C@@]1(c2cccc(-c3cnn(C)c3C#N)c2)C2=CN=NC2NC2=C1C(=O)NC(C)(C)C2 (stereo not given in full) [US20250313563, Compound 948827]
– | 6.00 to 7.00 | CC1(C)CC(=O)C2=C(C1)NC1=C(CN=N1)[C@]21CCN(S(=O)(=O)c2ccccc2F)C1 [US20250313563, Compound 943487]
– | 6.00 to 7.00 | CC[C@@]1(c2cccc(N3CCCC3)c2)C2=C(CC(C)(C)CC2=O)NC2N=NC(C)=C21 (stereo not given in full) [US20250313563, Compound 883874]
– | < 5.30 | CC[C@@]1(c2cccc(C(F)(F)F)c2)C2=C(N=NC2)NC2=C1C(=O)N(C)[C@@H]2C [US20250313563, Compound 913475]
– | 6.00 to 7.00 | COc1cccc(S(=O)(=O)N2CCC3(CC2)C2=C(N=NC2)NC2=C3C(=O)CC(C)(C)C2)c1 [US20250313563, Compound 943962]
– | 6.00 to 7.00 | CC[C@@]1(c2cccc(Oc3ncccn3)c2)C2=CN=NC2NC2=C1C(=O)CC(C)(C)C2 (stereo not given in full) [US20250313563, Compound 947808]
– | 6.00 to 7.00 | CC[C@@]1(c2cccc(OC)c2)C2=CN=NC2NC2=C1C(=O)C[C@H](C)C2 (stereo not given in full) [US20250313563, Compound 811559]

— BindingDB's records for patent US20250313563 (The Broad Institute, 2025)
